From publication PMC12146746 (Proceedings of the National Academy of Sciences of the …, 2025)

Biological target: ceDCR-1/DRH-1/RDE-4 (Caenorhabditis elegans, UniProt G5EDI8)
Details: 5 mM ATP, BLT 42-bp dsRNA with deoxynucleotides

ceDCR-1/DRH-1/RDE-4, sequence (G5EDI8 1-1037): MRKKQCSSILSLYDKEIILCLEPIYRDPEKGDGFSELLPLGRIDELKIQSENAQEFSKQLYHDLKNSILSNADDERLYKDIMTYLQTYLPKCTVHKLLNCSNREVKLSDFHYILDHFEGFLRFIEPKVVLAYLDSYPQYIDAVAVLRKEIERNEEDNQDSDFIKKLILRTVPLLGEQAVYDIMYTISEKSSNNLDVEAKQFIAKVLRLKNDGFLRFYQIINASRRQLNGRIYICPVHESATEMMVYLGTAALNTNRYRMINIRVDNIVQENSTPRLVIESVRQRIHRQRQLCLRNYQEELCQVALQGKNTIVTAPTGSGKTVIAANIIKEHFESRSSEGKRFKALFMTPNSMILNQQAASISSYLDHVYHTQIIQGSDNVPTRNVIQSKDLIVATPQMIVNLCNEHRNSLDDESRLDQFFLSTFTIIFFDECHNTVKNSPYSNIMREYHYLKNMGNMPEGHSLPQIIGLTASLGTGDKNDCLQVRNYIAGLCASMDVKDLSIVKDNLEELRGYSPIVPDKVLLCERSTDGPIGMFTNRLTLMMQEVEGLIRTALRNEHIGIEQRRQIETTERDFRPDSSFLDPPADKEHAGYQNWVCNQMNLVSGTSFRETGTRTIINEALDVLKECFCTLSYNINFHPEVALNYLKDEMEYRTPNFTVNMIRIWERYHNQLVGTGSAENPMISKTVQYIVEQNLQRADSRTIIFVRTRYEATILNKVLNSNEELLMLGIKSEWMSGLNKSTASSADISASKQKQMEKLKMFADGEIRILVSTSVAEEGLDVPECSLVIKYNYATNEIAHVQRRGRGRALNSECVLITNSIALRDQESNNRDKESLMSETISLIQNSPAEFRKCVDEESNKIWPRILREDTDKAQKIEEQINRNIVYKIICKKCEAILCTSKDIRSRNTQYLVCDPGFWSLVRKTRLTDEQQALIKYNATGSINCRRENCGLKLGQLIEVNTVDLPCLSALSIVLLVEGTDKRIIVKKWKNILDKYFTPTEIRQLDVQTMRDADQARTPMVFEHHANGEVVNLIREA
ceDCR-1/DRH-1/RDE-4, sequence (P34529 whole entry partner): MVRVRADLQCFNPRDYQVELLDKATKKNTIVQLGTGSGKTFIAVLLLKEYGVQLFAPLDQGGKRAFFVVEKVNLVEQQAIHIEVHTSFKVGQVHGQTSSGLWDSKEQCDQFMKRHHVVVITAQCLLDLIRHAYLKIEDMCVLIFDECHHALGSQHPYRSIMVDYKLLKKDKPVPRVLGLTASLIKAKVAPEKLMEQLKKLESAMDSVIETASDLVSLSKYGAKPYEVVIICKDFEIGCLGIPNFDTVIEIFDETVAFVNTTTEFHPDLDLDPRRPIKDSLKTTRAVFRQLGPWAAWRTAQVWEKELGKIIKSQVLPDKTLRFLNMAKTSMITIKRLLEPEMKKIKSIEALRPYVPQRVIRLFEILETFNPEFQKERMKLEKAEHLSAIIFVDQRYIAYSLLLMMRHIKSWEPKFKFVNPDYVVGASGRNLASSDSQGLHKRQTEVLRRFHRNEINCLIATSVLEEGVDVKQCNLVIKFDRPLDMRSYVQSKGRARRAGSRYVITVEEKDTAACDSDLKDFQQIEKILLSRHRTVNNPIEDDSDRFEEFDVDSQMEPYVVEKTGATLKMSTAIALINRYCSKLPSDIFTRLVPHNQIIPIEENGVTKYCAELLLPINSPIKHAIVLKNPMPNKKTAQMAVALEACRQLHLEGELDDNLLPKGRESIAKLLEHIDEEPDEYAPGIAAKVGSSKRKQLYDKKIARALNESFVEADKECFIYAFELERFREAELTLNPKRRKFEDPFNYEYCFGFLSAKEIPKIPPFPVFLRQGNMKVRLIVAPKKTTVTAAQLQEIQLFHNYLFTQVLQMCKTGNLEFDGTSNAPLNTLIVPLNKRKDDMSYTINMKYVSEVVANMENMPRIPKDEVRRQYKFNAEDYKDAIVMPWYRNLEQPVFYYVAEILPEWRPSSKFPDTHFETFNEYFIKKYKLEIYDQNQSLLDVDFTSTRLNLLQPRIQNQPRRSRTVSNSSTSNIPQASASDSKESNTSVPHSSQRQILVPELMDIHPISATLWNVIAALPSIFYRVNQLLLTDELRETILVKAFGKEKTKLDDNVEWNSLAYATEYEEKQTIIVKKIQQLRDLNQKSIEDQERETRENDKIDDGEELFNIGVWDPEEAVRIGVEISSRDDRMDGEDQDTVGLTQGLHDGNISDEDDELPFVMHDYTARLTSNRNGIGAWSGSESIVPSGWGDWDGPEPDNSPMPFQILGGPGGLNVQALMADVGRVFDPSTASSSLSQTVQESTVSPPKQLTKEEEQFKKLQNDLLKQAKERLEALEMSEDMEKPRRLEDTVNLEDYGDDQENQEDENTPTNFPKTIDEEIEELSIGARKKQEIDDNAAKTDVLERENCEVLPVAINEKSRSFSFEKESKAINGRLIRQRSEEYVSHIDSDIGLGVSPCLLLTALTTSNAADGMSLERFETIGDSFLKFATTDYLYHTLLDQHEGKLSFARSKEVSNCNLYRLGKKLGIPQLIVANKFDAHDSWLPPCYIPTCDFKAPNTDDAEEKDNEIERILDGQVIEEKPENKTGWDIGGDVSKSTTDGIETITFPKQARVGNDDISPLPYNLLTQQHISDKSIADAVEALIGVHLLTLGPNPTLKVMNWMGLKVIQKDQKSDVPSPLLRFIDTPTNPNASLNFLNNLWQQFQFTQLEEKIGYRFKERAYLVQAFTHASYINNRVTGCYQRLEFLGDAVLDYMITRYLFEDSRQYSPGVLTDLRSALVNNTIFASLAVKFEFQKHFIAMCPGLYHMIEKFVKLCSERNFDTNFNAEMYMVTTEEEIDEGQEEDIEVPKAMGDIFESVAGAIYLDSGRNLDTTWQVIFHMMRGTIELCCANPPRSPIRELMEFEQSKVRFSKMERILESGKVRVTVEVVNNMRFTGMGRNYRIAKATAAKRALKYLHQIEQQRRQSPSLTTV
ceDCR-1/DRH-1/RDE-4, sequence (G5EBF5 1-385 partner): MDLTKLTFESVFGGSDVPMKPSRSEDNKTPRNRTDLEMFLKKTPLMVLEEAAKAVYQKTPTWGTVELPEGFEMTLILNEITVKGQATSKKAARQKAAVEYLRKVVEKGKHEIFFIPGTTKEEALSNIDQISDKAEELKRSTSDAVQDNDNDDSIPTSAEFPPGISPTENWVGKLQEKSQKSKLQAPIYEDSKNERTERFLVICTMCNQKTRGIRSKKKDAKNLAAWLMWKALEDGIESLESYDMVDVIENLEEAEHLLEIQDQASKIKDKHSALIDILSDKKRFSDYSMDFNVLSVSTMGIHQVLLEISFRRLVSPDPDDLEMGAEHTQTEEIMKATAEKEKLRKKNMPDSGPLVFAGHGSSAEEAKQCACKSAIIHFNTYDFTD

SMILES: Nc1ncnc2c1ncn2[C@@H]1O[C@H](COP(=O)(O)OP(=O)(O)OP(=O)(O)O)[C@@H](O)[C@H]1O [ATP]
- streptavidin-displacement (ATP-dependent translocation): Wildtype C. elegans antiviral complex showed ATP-dependent streptavidin displacement on this substrate
